ChEMBL document CHEMBL6120962, “New Mitochondria-Targeted Fisetin Derivative Compromises Mitophagy and Limits Survival of Drug-Induced Senescent Breast Cancer Cells” (J Med Chem, 2024)
The source made the active and inactive calls. No cut-off for these calls is given here.

Key:
Mitochondrial membrane [1] = assay: Induction of mitochondrial membrane potential depolarization in human ZR-75-30 cells at 1 to 5 uM incubated for 24 hrs by 7-AAD staining based flow cytometric analysis; type: cell membranes; conditions: dose 1-5 µM
BJ [2] = assay: Cytotoxicity against human BJ cells assessed as effect on metabolic activity at 10 uM incubated for 24 hrs by MTT assay; type: toxicity, cell-based
HCC1500 [3] = assay: Induction of apoptosis in human HCC1500 cells assessed as phosphatidylserine externalization at 1 to 5 uM incubated for 24 hrs by Annexin V-FITC staining based flow cytometric analysis; type: functional, cell-based; conditions: dose 1-5 µM
MCF-10F [4] = assay: Induction of mitochondrial dysfunction in tamoxifen-induced senescent human MCF-10F cells assessed as decrease in ATP production at 5 uM incubated for 6 hrs by real-time analysis; type: functional, cell-based
HCC1500 [5] = assay: Induction of apoptosis in tamoxifen-induced senescent human HCC1500 cells assessed as phosphatidylserine externalization at 1 to 5 uM incubated for 24 hrs by Annexin V-FITC staining based flow cytometric analysis; type: functional, cell-based; conditions: dose 1-5 µM
HCC1428 [6] = assay: Induction of ubiquitin-dependent mitophagy in tamoxifen-induced senescent human HCC1428 cells assessed as increase in PINK1 level at 1 to 5 uM by immunostaining based imaging cytometric analysis; type: functional, cell-based; conditions: dose 1-5 µM
HCC1428 [7] = assay: Induction of autophagosome formation in tamoxifen-induced senescent human HCC1428 cells assessed as increase in LC3B level at 1 to 5 uM by immunostaining based imaging cytometric analysis; type: functional, cell-based; conditions: dose 1-5 µM
ZR-75-30 [8] = assay: Induction of apoptosis in tamoxifen-induced senescent human ZR-75-30 cells assessed as phosphatidylserine externalization at 1 to 5 uM incubated for 24 hrs by Annexin V-FITC staining based flow cytometric analysis; type: functional, cell-based; conditions: dose 1-5 µM
T47D = assay: Antitumor activity against ER-positive human T47D cells xenografted in Danio rerio embryo assessed as decrease in tumor size at 1 to 5 uM administered for 48 hrs by imaging analysis; type: functional, cell-based; conditions: dose 1-5 µM
HCC1428 [9] = assay: Induction of apoptosis in tamoxifen-induced senescent human HCC1428 cells assessed as decrease in AKT level at 5 uM incubated for 24 hrs by Western blotting analysis; type: functional, cell-based
HCC1428 [10] = assay: Induction of autophagy in tamoxifen-induced senescent human HCC1428 cells assessed as increase in ULK1 level at 1 to 5 uM by immunostaining based imaging cytometric analysis; type: functional, cell-based; conditions: dose 1-5 µM
Mitochondrial membrane [11] = assay: Induction of mitochondrial membrane potential depolarization in human HCC1500 cells at 1 to 5 uM incubated for 24 hrs by 7-AAD staining based flow cytometric analysis; type: cell membranes; conditions: dose 1-5 µM
HCC1428 [12] = assay: Induction of alternative mitophagy in tamoxifen-induced senescent human HCC1428 cells assessed as increase in Rab9 level at 1 to 5 uM by immunostaining based imaging cytometric analysis; type: functional, cell-based; conditions: dose 1-5 µM
HCC1428 [13] = assay: Induction of mitochondrial dysfunction in tamoxifen-induced senescent human HCC1428 cells assessed as decrease in coupling efficiency respiration at 5 uM incubated for 6 hrs by real-time analysis; type: functional, cell-based
[14] = target: RAC-alpha serine/threonine-protein kinase (Homo sapiens) (UniProt P31749); assay: Binding affinity to recombinant human AKT (14 to 276 residues) assessed as interaction by measuring decrease in chemiluminescence signal at 0.01 to 5 uM incubated overnight by dot-blot analysis; conditions: dose 0.01-5 µM
HCC1428 [15] = assay: Induction of apoptosis in human HCC1428 cells assessed as phosphatidylserine externalization at 1 to 5 uM incubated for 24 hrs by Annexin V-FITC staining based flow cytometric analysis; type: functional, cell-based; conditions: dose 1-5 µM
HCC1428 [16] = assay: Induction of apoptosis in tamoxifen-induced senescent human HCC1428 cells assessed as phosphatidylserine externalization at 1 to 5 uM incubated for 24 hrs by Annexin V-FITC staining based flow cytometric analysis; type: functional, cell-based; conditions: dose 1-5 µM
MCF-10F [17] = assay: Induction of mitochondrial dysfunction in tamoxifen-induced senescent human MCF-10F cells assessed as decrease in maximal respiration at 5 uM incubated for 6 hrs by real-time analysis; type: functional, cell-based
HCC1428 [18] = assay: Induction of autophagy in tamoxifen-induced senescent human HCC1428 cells assessed as increase in VPS34 level at 1 to 5 uM by immunostaining based imaging cytometric analysis; type: functional, cell-based; conditions: dose 1-5 µM
Mitochondrial membrane [19] = assay: Induction of mitochondrial membrane potential depolarization in human CAMA-1 cells at 1 to 5 uM incubated for 24 hrs by 7-AAD staining based flow cytometric analysis; type: cell membranes; conditions: dose 1-5 µM
MCF7 = assay: Antitumor activity against ER-positive human MCF7 cells xenografted in Danio rerio embryo assessed as decrease in tumor size at 1 to 5 uM administered for 48 hrs by imaging analysis; type: functional, cell-based; conditions: dose 1-5 µM
HCC1428 [20] = assay: Induction of mitochondrial dysfunction in tamoxifen-induced senescent human HCC1428 cells assessed as increase in proton leak at 5 uM incubated for 6 hrs by real-time analysis; type: functional, cell-based
Mitochondrial membrane [21] = assay: Induction of mitochondrial membrane potential depolarization in human HCC1428 cells at 1 to 5 uM incubated for 24 hrs by 7-AAD staining based flow cytometric analysis; type: cell membranes; conditions: dose 1-5 µM
HCC1428 [22] = assay: Induction of mitochondrial dysfunction in tamoxifen-induced senescent human HCC1428 cells assessed as decrease in ATP production at 5 uM incubated for 6 hrs by real-time analysis; type: functional, cell-based
[23] = target: Apoptosis regulator Bcl-2 (Homo sapiens) (UniProt P10415); assay: Binding affinity to recombinant human Bcl-2 assessed as interaction by measuring decrease in chemiluminescence signal at 0.01 to 5 uM incubated overnight by dot-blot analysis; conditions: dose 0.01-5 µM
HCC1428 [24] = assay: Induction of ubiquitin-independent mitophagy in tamoxifen-induced senescent human HCC1428 cells assessed as increase in BNIP3 level at 1 to 5 uM by immunostaining based imaging cytometric analysis; type: functional, cell-based; conditions: dose 1-5 µM
HCC1428 [25] = assay: Induction of autophagosome formation in tamoxifen-induced senescent human HCC1428 cells assessed as increase in ubiquitin level at 1 to 5 uM by immunostaining based imaging cytometric analysis; type: functional, cell-based; conditions: dose 1-5 µM
MCF-10F [26] = assay: Induction of mitochondrial dysfunction in tamoxifen-induced senescent human MCF-10F cells assessed as decrease in coupling efficiency at 5 uM incubated for 6 hrs by real-time analysis; type: functional, cell-based
ZR-75-30 [27] = assay: Induction of apoptosis in human ZR-75-30 cells assessed as phosphatidylserine externalization at 1 to 5 uM incubated for 24 hrs by Annexin V-FITC staining based flow cytometric analysis; type: functional, cell-based; conditions: dose 1-5 µM
HCC1428 [28] = assay: Induction of mitochondrial dysfunction in tamoxifen-induced senescent human HCC1428 cells assessed as decrease in maximal respiration at 5 uM incubated for 6 hrs by real-time analysis; type: functional, cell-based
CAMA-1 [29] = assay: Induction of apoptosis in tamoxifen-induced senescent human CAMA-1 cells assessed as phosphatidylserine externalization at 1 to 5 uM incubated for 24 hrs by Annexin V-FITC staining based flow cytometric analysis; type: functional, cell-based; conditions: dose 1-5 µM
CAMA-1 [30] = assay: Induction of apoptosis in human CAMA-1 cells assessed as phosphatidylserine externalization at 1 to 5 uM incubated for 24 hrs by Annexin V-FITC staining based flow cytometric analysis; type: functional, cell-based; conditions: dose 1-5 µM
HCC1428 [31] = assay: Upregulation of BECN1 level in tamoxifen-induced senescent human HCC1428 cells at 1 to 5 uM by immunostaining based imaging cytometric analysis; type: functional, cell-based; conditions: dose 1-5 µM
MCF-10F [32] = assay: Induction of mitochondrial dysfunction in tamoxifen-induced senescent human MCF-10F cells assessed as increase in proton leak at 5 uM incubated for 6 hrs by real-time analysis; type: functional, cell-based
MCF-10F [33] = assay: Induction of mitochondrial dysfunction in tamoxifen-induced senescent human MCF-10F cells assessed as decrease in spare respiratory capacity at 5 uM incubated for 6 hrs by real-time analysis; type: functional, cell-based
HCC1428 [34] = assay: Induction of mitochondrial dysfunction in tamoxifen-induced senescent human HCC1428 cells assessed as decrease in spare respiratory capacity at 5 uM incubated for 6 hrs by real-time analysis; type: functional, cell-based
HCC1428 [35] = assay: Anticancer activity against ER-positive human HCC1428 cells assessed as effect on metabolic activity at 10 uM incubated for 24 hrs by MTT assay; type: functional, cell-based
HCC1428 [36] = assay: Induction of ubiquitin-dependent mitophagy in tamoxifen-induced senescent human HCC1428 cells assessed as increase in parkin level at 1 to 5 uM by immunostaining based imaging cytometric analysis; type: functional, cell-based; conditions: dose 1-5 µM
HCC1428 [37] = assay: Induction of mitochondrial dysfunction in human HCC1428 cells assessed as increase in proton leak at 5 uM incubated for 6 hrs by real time analysis; type: functional, cell-based
HCC1428 [38] = assay: Induction of mitochondrial dysfunction in human HCC1428 cells assessed as decrease in maximal respiration at 5 uM incubated for 6 hrs by real time analysis; type: functional, cell-based
HCC1428 [39] = assay: Induction of mitochondrial dysfunction in human HCC1428 cells assessed as decrease in spare respiratory capacity at 5 uM incubated for 6 hrs by real time analysis; type: functional, cell-based
HCC1428 [40] = assay: Induction of mitochondrial dysfunction in human HCC1428 cells assessed as decrease in coupling efficiency at 5 uM incubated for 6 hrs by real time analysis; type: functional, cell-based
HCC1428 [41] = assay: Induction of mitochondrial dysfunction in human HCC1428 cells assessed as decrease in ATP production at 5 uM incubated for 6 hrs by real time analysis; type: functional, cell-based
[42] = Cytotoxicity against human MCF-10F cells assessed as effect on metabolic activity at 1 to 10 uM incubated for 24 hrs by MTT assay; type: toxicity, cell-based; conditions: dose 1-10 µM
CAMA-1 [43] = assay: Anticancer activity against ER-positive human CAMA-1 cells assessed as effect on metabolic activity upto 10 uM incubated for 24 hrs by MTT assay; type: functional, cell-based
BJ [44] = assay: Cytotoxicity against human BJ cells assessed as effect on metabolic activity at 1 to 10 uM incubated for 24 hrs by MTT assay; type: toxicity, cell-based; conditions: dose 1-10 µM
HCC1428 [45] = assay: Anticancer activity against ER-positive human HCC1428 cells assessed as effect on metabolic activity upto 10 uM incubated for 24 hrs by MTT assay; type: functional, cell-based
HCC1500 [46] = assay: Anticancer activity against ER-positive human HCC1500 cells assessed as effect on metabolic activity upto 10 uM incubated for 24 hrs by MTT assay; type: functional, cell-based
ZR-75-30 [47] = assay: Anticancer activity against ER-positive human ZR-75-30 cells assessed as effect on metabolic activity upto 10 uM incubated for 24 hrs by MTT assay; type: functional, cell-based

Sequence of RAC-alpha serine/threonine-protein kinase (Homo sapiens) (P31749 whole entry, the tested form may be a part): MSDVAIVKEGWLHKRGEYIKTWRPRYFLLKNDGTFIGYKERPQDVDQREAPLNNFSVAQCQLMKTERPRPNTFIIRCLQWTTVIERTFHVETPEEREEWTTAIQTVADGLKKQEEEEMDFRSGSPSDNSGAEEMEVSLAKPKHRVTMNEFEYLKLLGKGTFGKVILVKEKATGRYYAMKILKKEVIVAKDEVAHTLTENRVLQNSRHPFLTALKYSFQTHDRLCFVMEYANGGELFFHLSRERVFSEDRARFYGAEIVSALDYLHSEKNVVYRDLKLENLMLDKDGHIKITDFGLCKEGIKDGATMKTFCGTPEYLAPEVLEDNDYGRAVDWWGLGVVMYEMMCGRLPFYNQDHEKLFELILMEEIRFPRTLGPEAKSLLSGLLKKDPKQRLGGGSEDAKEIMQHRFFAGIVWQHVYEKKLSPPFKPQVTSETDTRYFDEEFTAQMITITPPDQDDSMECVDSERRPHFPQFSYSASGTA
Sequence of Apoptosis regulator Bcl-2 (Homo sapiens) (P10415 whole entry): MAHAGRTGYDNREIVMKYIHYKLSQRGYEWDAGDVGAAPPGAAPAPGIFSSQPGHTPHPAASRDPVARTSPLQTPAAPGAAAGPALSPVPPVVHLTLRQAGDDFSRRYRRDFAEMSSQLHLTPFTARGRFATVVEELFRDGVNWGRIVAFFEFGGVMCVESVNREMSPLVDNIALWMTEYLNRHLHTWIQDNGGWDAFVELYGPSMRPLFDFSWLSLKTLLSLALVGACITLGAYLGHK

## O=c1c(O)c(-c2ccc(O)c(O)c2)oc2cc(O)ccc12 [FISETIN]
Mitochondrial membrane [1]
  Activity: inactive
BJ [2]
  Activity: Toxic
HCC1500 [3]
  Activity: inactive
MCF-10F [4]
  Activity: inactive
HCC1500 [5]
  Activity: inactive
HCC1428 [6]
  Activity: inactive
HCC1428 [7]
  Activity: inactive
ZR-75-30 [8]
  Activity: inactive
T47D
  Activity: inactive
HCC1428 [9]
  Activity: Active
HCC1428 [10]
  Activity: inactive
Mitochondrial membrane [11]
  Activity: inactive
HCC1428 [12]
  Activity: inactive
HCC1428 [13]
  Activity: inactive
[14]
  Activity: Active
HCC1428 [15]
  Activity: inactive
HCC1428 [16]
  Activity: inactive
MCF-10F [17]
  Activity: inactive
HCC1428 [18]
  Activity: inactive
Mitochondrial membrane [19]
  Activity: inactive
MCF7
  Activity: inactive
HCC1428 [20]
  Activity: inactive
Mitochondrial membrane [21]
  Activity: inactive
HCC1428 [22]
  Activity: inactive
[23]
  Activity: Active
HCC1428 [24]
  Activity: inactive
HCC1428 [25]
  Activity: inactive
MCF-10F [26]
  Activity: inactive
ZR-75-30 [27]
  Activity: inactive
HCC1428 [28]
  Activity: inactive
CAMA-1 [29]
  Activity: inactive
CAMA-1 [30]
  Activity: inactive
HCC1428 [31]
  Activity: inactive
MCF-10F [32]
  Activity: inactive
MCF-10F [33]
  Activity: inactive
HCC1428 [34]
  Activity: inactive
HCC1428 [35]
  Activity: Active
HCC1428 [36]
  Activity: inactive

## O=c1c(O)c(-c2ccc3c(c2)OC(c2ccccc2)(c2ccccc2)O3)oc2cc(O)ccc12
HCC1428 [37]
  Activity: Active; Slight Effect Observed
HCC1428 [38]
  Activity: Active; Slight Effect Observed
HCC1428 [39]
  Activity: Active; Slight Effect Observed
T47D
  Activity: inactive
HCC1428 [40]
  Activity: Active; Slight Effect Observed
[14]
  Activity: Active
MCF7
  Activity: inactive
HCC1428 [41]
  Activity: Active; Slight Effect Observed
[23]
  Activity: Active

## CC(=O)Oc1c(-c2ccc3c(c2)OC(c2ccccc2)(c2ccccc2)O3)oc2cc(OCCCC[P+](c3ccccc3)(c3ccccc3)c3ccccc3)ccc2c1=O.[I-]
HCC1428 [37]
  Activity: Active
HCC1428 [38]
  Activity: Active
HCC1428 [39]
  Activity: Active
[42]
  Activity: Non-toxic
CAMA-1 [43]
  Activity: Active
HCC1428 [40]
  Activity: Active
BJ [44]
  Activity: Non-toxic
[14]
  Activity: Active
HCC1428 [45]
  Activity: Active
HCC1500 [46]
  Activity: Active
HCC1428 [41]
  Activity: Active
[23]
  Activity: Active
ZR-75-30 [47]
  Activity: Active
